{
  "source": "patent US10420718B2",
  "about": "“Effervescent compositions containing co-crystals of the acid part” (University of Bradford, priority 2014, dated 2019)",
  "key": {"[1]": {"test": "Stability of co-crystals stored at 98% relative humidity, checked by XRD", "assay_type": "physicochemical", "conditions": "98% RH", "description": "The co-crystals were stored at 98% relative humidity and the stability was evaluated after 24 hours using powder X-ray diffraction. […] This stability of the co-crystal in the presence of high amounts of atmospheric moisture is responsible for maintenance of the effervescent action. The stability of the co-crystals to moisture was investigated by storing the co-crystals at 98% relative humidity and the following results were observed. The co-crystal samples were analysed with XRD to check whether the co-crystal retained its structure or became dissociated or degraded over time on exposure to the atmosphere. Stability of Co-Crystals at 98% RH"}, "[2]": {"test": "Dynamic vapour sorption (DVS) study", "assay_type": "physicochemical", "conditions": "for Moisture sorption (weight gain) at 90% relative humidity: DVS, 90% RH", "description": "UK. The sample weights were taken in the range of 30-50 mg and below experimental parameters were kept constant for all samples."}},
  "data": [
    {"molecule": "NC(=O)c1cccnc1.NC(=O)c1cccnc1.O=C(O)CC(O)(CC(=O)O)C(=O)O", "note": "[Citric acid-nicotinamide, 1:2, citric acid-nicotinamide 1:2 co-crystal]", "values": [
      {"measurement": "XRD results (co-crystal stability)", "setting": "[1]; Day 14", "result": "Stable"},
      {"measurement": "XRD results (co-crystal stability)", "setting": "[1]; Day 18", "result": "Stable"},
      {"measurement": "Behaviour in DVS study (in words)", "setting": "[2]; DVS 0-90% RH, 25 C", "result": "non-hygroscopic"},
      {"measurement": "Moisture sorption (weight gain) at 90% relative humidity", "setting": "[2]; 25 C", "result": 0.23, "unit": "%"}
    ]},
    {"molecule": "NC(=O)c1cccnc1.NC(=O)c1cccnc1.O=C(O)CC(O)(CC(=O)O)C(=O)O", "note": "[Citric acid:nicotinamide, 1:2 co-crystal]", "values": [
      {"measurement": "Change In Mass (%)", "setting": "[2]; Target Relative Humidity 0.0%", "result": 0.0002, "unit": "%"},
      {"measurement": "Change In Mass (%)", "setting": "[2]; Target Relative Humidity 10.0%", "result": 0.0044, "unit": "%"},
      {"measurement": "Change In Mass (%)", "setting": "[2]; Target Relative Humidity 20.0%", "result": 0.0070, "unit": "%"},
      {"measurement": "Change In Mass (%)", "setting": "[2]; Target Relative Humidity 30.0%", "result": 0.0108, "unit": "%"},
      {"measurement": "Change In Mass (%)", "setting": "[2]; Target Relative Humidity 40.0%", "result": 0.0145, "unit": "%"},
      {"measurement": "Change In Mass (%)", "setting": "[2]; Target Relative Humidity 50.0%", "result": 0.0203, "unit": "%"},
      {"measurement": "Change In Mass (%)", "setting": "[2]; Target Relative Humidity 60.0%", "result": 0.0318, "unit": "%"},
      {"measurement": "Change In Mass (%)", "setting": "[2]; Target Relative Humidity 70.0%", "result": 0.0561, "unit": "%"},
      {"measurement": "Change In Mass (%)", "setting": "[2]; Target Relative Humidity 80.0%", "result": 0.0976, "unit": "%"},
      {"measurement": "Change In Mass (%)", "setting": "[2]; Target Relative Humidity 90.0%", "result": 0.2319, "unit": "%"}
    ]},
    {"molecule": "O=C(O)CC(O)(CC(=O)O)C(=O)O", "note": "[citric acid]", "values": [
      {"measurement": "Behaviour in DVS study (in words)", "setting": "[2]; DVS 0-90% RH, 25 C", "result": "undergoes liquefaction"},
      {"measurement": "Weight gain due to moisture sorption (total)", "setting": "[2]; DVS 0-90% RH, 25 C", "result": 31, "unit": "%"},
      {"measurement": "Change In Mass (%)", "setting": "[2]; Target Relative Humidity 0.0%", "result": 0.00, "unit": "%"},
      {"measurement": "Change In Mass (%)", "setting": "[2]; Target Relative Humidity 10.0%", "result": 0.00, "unit": "%"},
      {"measurement": "Change In Mass (%)", "setting": "[2]; Target Relative Humidity 20.0%", "result": 0.00, "unit": "%"},
      {"measurement": "Change In Mass (%)", "setting": "[2]; Target Relative Humidity 30.0%", "result": 0.00, "unit": "%"},
      {"measurement": "Change In Mass (%)", "setting": "[2]; Target Relative Humidity 40.0%", "result": 0.00, "unit": "%"},
      {"measurement": "Change In Mass (%)", "setting": "[2]; Target Relative Humidity 50.0%", "result": 0.00, "unit": "%"},
      {"measurement": "Change In Mass (%)", "setting": "[2]; Target Relative Humidity 60.0%", "result": 0.01, "unit": "%"},
      {"measurement": "Change In Mass (%)", "setting": "[2]; Target Relative Humidity 70.0%", "result": 0.02, "unit": "%"},
      {"measurement": "Change In Mass (%)", "setting": "[2]; Target Relative Humidity 80.0%", "result": 4.65, "unit": "%"},
      {"measurement": "Change In Mass (%)", "setting": "[2]; Target Relative Humidity 90.0%", "result": 31.21, "unit": "%"}
    ]},
    {"molecule": "O=C([O-])O.[Na+]", "note": "[sodium bicarbonate]", "values": [
      {"measurement": "Moisture sorption (weight gain) at 90% relative humidity", "setting": "[2]; 25 C", "result": 0.32, "unit": "%"},
      {"measurement": "Change In Mass (%)", "setting": "[2]; Target Relative Humidity 0.0%", "result": "−0.0001", "unit": "%"},
      {"measurement": "Change In Mass (%)", "setting": "[2]; Target Relative Humidity 10.0%", "result": 0.0027, "unit": "%"},
      {"measurement": "Change In Mass (%)", "setting": "[2]; Target Relative Humidity 20.0%", "result": 0.0042, "unit": "%"},
      {"measurement": "Change In Mass (%)", "setting": "[2]; Target Relative Humidity 30.0%", "result": 0.0056, "unit": "%"},
      {"measurement": "Change In Mass (%)", "setting": "[2]; Target Relative Humidity 40.0%", "result": 0.0074, "unit": "%"},
      {"measurement": "Change In Mass (%)", "setting": "[2]; Target Relative Humidity 50.0%", "result": 0.0103, "unit": "%"},
      {"measurement": "Change In Mass (%)", "setting": "[2]; Target Relative Humidity 60.0%", "result": 0.0143, "unit": "%"},
      {"measurement": "Change In Mass (%)", "setting": "[2]; Target Relative Humidity 70.0%", "result": 0.0240, "unit": "%"},
      {"measurement": "Change In Mass (%)", "setting": "[2]; Target Relative Humidity 80.0%", "result": 0.0746, "unit": "%"},
      {"measurement": "Change In Mass (%)", "setting": "[2]; Target Relative Humidity 90.0%", "result": 0.3236, "unit": "%"}
    ]}
  ]
}
